Test results reported in patent US20140213648A1, “METHODS OF INCREASING EPA BLOOD LEVELS” (priority 2012, published 2014).

Experiment: 12-week placebo-controlled study: plasma fatty acid concentrations, ratios and proportions (GC/FID)
Assay type: in vivo, human
Conditions: for AA plasma concentration, change from baseline (LS mean (SE)) / AA plasma concentration, end-of-treatment (mean) / DHA plasma concentration, change from baseline (LS mean (SE)) / DHA plasma concentration, end-of-treatment (mean) / Linoleic plasma concentration, change from baseline (LS mean (SE)) / Linoleic plasma concentration, end-of-treatment (mean) / Oleic plasma concentration, change from baseline (LS mean (SE)) / Oleic plasma concentration, end-of-treatment (mean) / Palmitic plasma concentration, change from baseline (LS mean (SE)) / Palmitic plasma concentration, end-of-treatment (mean) / Proportion of monounsaturated fatty acids to total fatty acids in plasma, change from baseline (LS mean (SE)) / Proportion of monounsaturated fatty acids to total fatty acids in plasma, end-of-treatment (mean (SD)) / Proportion of saturated fatty acids to total fatty acids in plasma, change from baseline (LS mean (SE)) / Proportion of saturated fatty acids to total fatty acids in plasma, end-of-treatment (mean (SD)) / Proportion of total omega-3 fatty acids to total fatty acids in plasma, change from baseline (LS mean (SE)) / Proportion of total omega-3 fatty acids to total fatty acids in plasma, end-of-treatment (mean (SD)) / Proportion of total omega-6 fatty acids to total fatty acids in plasma, change from baseline (LS mean (SE)) / Proportion of total omega-6 fatty acids to total fatty acids in plasma, end-of-treatment (mean (SD)) / Ratio of AA/EPA in plasma, change from baseline (LS mean (SE)) / Ratio of AA/EPA in plasma, end-of-treatment (mean) / Ratio of n-3/n-6 FA in plasma, change from baseline (LS mean (SE)) / Ratio of n-3/n-6 FA in plasma, end-of-treatment (mean) / Stearic plasma concentration, change from baseline (LS mean (SE)) / Stearic plasma concentration, end-of-treatment (mean): week 12
Description: A multi-center, placebo-controlled randomized, double-blind, 12-week study with an open-label extension is performed to evaluate the efficacy and safety of AMR101 in patients with fasting triglyceride levels ≧500 mg/dL. The primary objective of the study is to determine the efficacy of AMR101 2 g daily and 4 g daily, compared to placebo, in lowering fasting TG levels in patients with fasting TG levels ≧500 mg/dL and ≦1500 mg/dL (≧5.65 mmol/L and ≦16.94 mmol/L).
Eligible patients will be randomly assigned at Visit 4 (Week 0) to receive orally AMR101 2 g daily, AMR101 4 g daily, or placebo for the 12-week double-blind treatment period. AMR101 is provided in 1 g liquid-filled, oblong, gelatin capsules. The matching placebo capsule is filled with light liquid paraffin and contains 0 g of AMR101. During the double-blind treatment period, patients will take 2 capsules (AMR101 or matching placebo) in the morning and 2 in the evening for a total of 4 capsules per day. Patients in the AMR101 2 g/day treatment group will receive 1 AMR101 1 g capsule and 1 matching placebo capsule in the morning and in the evening. Patients in the AMR101 4 g/day treatment group will receive 2 AMR101 1 g capsules in the morning and evening.
Lipids were extracted from plasma and RBC suspensions and converted into fatty acid methyl esters for analysis using a standard validated gas chromatography/flame ionization detection method. Fatty acid parameters were compared between EPA treatment groups and placebo using an ANCOVA model with treatment, gender, type of statin therapy, and presence of diabetes as factors, and the baseline parameter value as a covariate. LSMs, SEs, and 2-tailed 95% confidence intervals for each treatment group and for each comparison were determined.

[1] = 2 g/day vs placebo, week 12, P <0.0001
[2] = 4 g/day vs placebo, week 12, P <0.0001

In the case of `CC/C=C\C/C=C\C/C=C\C/C=C\C/C=C\CCCC(=O)OCC` [IPE, Icosapent ethyl], the “Dose dependence of EPA concentration in plasma (in words)” value (2 g/day or 4 g/day, 12 weeks) is reported as “significantly increased EPA concentrations in a linear, dose-dependent fashion”, the “Proportion of monounsaturated fatty acids to total fatty acids in plasma, mean placebo-adjusted percent change from baseline” value (2 g/day vs placebo, week 12, P 0.0009) is reported as −7.4% and the “Palmitic plasma concentration, mean placebo-adjusted percent change from baseline” value (2 g/day vs placebo, week 12, P 0.0011) is reported as −23.9%. For the same compound, the “Oleic plasma concentration, mean placebo-adjusted percent change from baseline” value (2 g/day vs placebo, week 12, P 0.0023) was −23.8%, the “Stearic plasma concentration, mean placebo-adjusted percent change from baseline” value (2 g/day vs placebo, week 12, P 0.0040) was −20.7% and the “Linoleic plasma concentration, mean placebo-adjusted percent change from baseline” value (2 g/day vs placebo, week 12, P 0.0136) was −15.2%. The “Proportion of total omega-6 fatty acids to total fatty acids in plasma, mean placebo-adjusted percent change from baseline” value (2 g/day vs placebo, week 12, P 0.3044) was 3.2%, the “DHA plasma concentration, mean placebo-adjusted percent change from baseline” value (2 g/day vs placebo, week 12, P 0.7217) was −2.3% and the “Proportion of saturated fatty acids to total fatty acids in plasma, mean placebo-adjusted percent change from baseline” value (2 g/day vs placebo, week 12, P 0.8076) was −0.4%. For the same compound, the “AA plasma concentration, mean placebo-adjusted percent change from baseline” value [1] was −16.4%, the “Proportion of total omega-3 fatty acids to total fatty acids in plasma, mean placebo-adjusted percent change from baseline” value [1] was 68.4% and the “Ratio of AA/EPA in plasma, mean placebo-adjusted percent change from baseline” value [1] was −88.4%. The “Ratio of n-3/n-6 FA in plasma, mean placebo-adjusted percent change from baseline” value [1] was 76.8%, the “AA plasma concentration, change from baseline (LS mean (SE))” value (2 g/day) was −36.7 (10.6) and the “AA plasma concentration, end-of-treatment (mean)” value (2 g/day) was 327.3. The “DHA plasma concentration, change from baseline (LS mean (SE))” value (2 g/day) was −13.1 (6.2), the “DHA plasma concentration, end-of-treatment (mean)” value (2 g/day) was 104.8 and the “Linoleic plasma concentration, change from baseline (LS mean (SE))” value (2 g/day) was −227 (121.4). The “Linoleic plasma concentration, end-of-treatment (mean)” value (2 g/day) was 1981, the “Oleic plasma concentration, change from baseline (LS mean (SE))” value (2 g/day) was −414 (142.9) and the “Oleic plasma concentration, end-of-treatment (mean)” value (2 g/day) was 2018. The “Palmitic plasma concentration, change from baseline (LS mean (SE))” value (2 g/day) was −353 (126.9), the “Palmitic plasma concentration, end-of-treatment (mean)” value (2 g/day) was 2015 and the “Proportion of monounsaturated fatty acids to total fatty acids in plasma, change from baseline (LS mean (SE))” value (2 g/day) was −1.4 (0.5) mol %. The “Proportion of monounsaturated fatty acids to total fatty acids in plasma, end-of-treatment (mean (SD))” value (2 g/day) was 29.5 (4.9) mol %, the “Proportion of saturated fatty acids to total fatty acids in plasma, change from baseline (LS mean (SE))” value (2 g/day) was −0.3 (0.5) mol % and the “Proportion of saturated fatty acids to total fatty acids in plasma, end-of-treatment (mean (SD))” value (2 g/day) was 35.8 (3.7) mol %. The “Proportion of total omega-3 fatty acids to total fatty acids in plasma, change from baseline (LS mean (SE))” value (2 g/day) was 2.0 (0.2) mol %, the “Proportion of total omega-3 fatty acids to total fatty acids in plasma, end-of-treatment (mean (SD))” value (2 g/day) was 4.8 (1.3) mol % and the “Proportion of total omega-6 fatty acids to total fatty acids in plasma, change from baseline (LS mean (SE))” value (2 g/day) was −0.2 (0.7) mol %. The “Proportion of total omega-6 fatty acids to total fatty acids in plasma, end-of-treatment (mean (SD))” value (2 g/day) was 29.8 (6.8) mol %, the “Ratio of AA/EPA in plasma, change from baseline (LS mean (SE))” value (2 g/day) was −9.6 (0.5) and the “Ratio of AA/EPA in plasma, end-of-treatment (mean)” value (2 g/day) was 2.3. For the same compound, the “Ratio of n-3/n-6 FA in plasma, change from baseline (LS mean (SE))” value (2 g/day) was 0.07 (0.009), the “Ratio of n-3/n-6 FA in plasma, end-of-treatment (mean)” value (2 g/day) was 0.17 and the “Stearic plasma concentration, change from baseline (LS mean (SE))” value (2 g/day) was −57.8 (33.3). The “Stearic plasma concentration, end-of-treatment (mean)” value (2 g/day) was 541.5, the “Oleic plasma concentration, mean placebo-adjusted percent change from baseline” value (4 g/day vs placebo, week 12, P 0.0001) was −31.9% and the “Stearic plasma concentration, mean placebo-adjusted percent change from baseline” value (4 g/day vs placebo, week 12, P 0.0002) was −28.4%. The “Linoleic plasma concentration, mean placebo-adjusted percent change from baseline” value (4 g/day vs placebo, week 12, P 0.0003) was −23.7%, the “Proportion of monounsaturated fatty acids to total fatty acids in plasma, mean placebo-adjusted percent change from baseline” value (4 g/day vs placebo, week 12, P 0.0008) was −7.7% and the “Proportion of saturated fatty acids to total fatty acids in plasma, mean placebo-adjusted percent change from baseline” value (4 g/day vs placebo, week 12, P 0.1049) was −2.8%. For the same compound, the “DHA plasma concentration, mean placebo-adjusted percent change from baseline” value (4 g/day vs placebo, week 12, P 0.7115) was 2.4%, the “Proportion of total omega-6 fatty acids to total fatty acids in plasma, mean placebo-adjusted percent change from baseline” value (4 g/day vs placebo, week 12, P 0.8846) was 0.5% and the “AA plasma concentration, mean placebo-adjusted percent change from baseline” value [2] was −26.8%. For the same compound, the “Palmitic plasma concentration, mean placebo-adjusted percent change from baseline” value [2] was −34.4%, the “Proportion of total omega-3 fatty acids to total fatty acids in plasma, mean placebo-adjusted percent change from baseline” value [2] was 132.7% and the “Ratio of AA/EPA in plasma, mean placebo-adjusted percent change from baseline” value [2] was −99.4%. The “Ratio of n-3/n-6 FA in plasma, mean placebo-adjusted percent change from baseline” value [2] was 145.8%, the “AA plasma concentration, change from baseline (LS mean (SE))” value (4 g/day) was −76.2 (11.3) and the “AA plasma concentration, end-of-treatment (mean)” value (4 g/day) was 280.3. The “DHA plasma concentration, change from baseline (LS mean (SE))” value (4 g/day) was −4.5 (6.6), the “DHA plasma concentration, end-of-treatment (mean)” value (4 g/day) was 118.1 and the “Linoleic plasma concentration, change from baseline (LS mean (SE))” value (4 g/day) was −309 (128.1). The “Linoleic plasma concentration, end-of-treatment (mean)” value (4 g/day) was 1882, the “Oleic plasma concentration, change from baseline (LS mean (SE))” value (4 g/day) was −546 (154.0) and the “Oleic plasma concentration, end-of-treatment (mean)” value (4 g/day) was 1885. The “Palmitic plasma concentration, change from baseline (LS mean (SE))” value (4 g/day) was −560 (138.1), the “Palmitic plasma concentration, end-of-treatment (mean)” value (4 g/day) was 1789 and the “Proportion of monounsaturated fatty acids to total fatty acids in plasma, change from baseline (LS mean (SE))” value (4 g/day) was −1.7 (0.5) mol %. For the same compound, the “Proportion of monounsaturated fatty acids to total fatty acids in plasma, end-of-treatment (mean (SD))” value (4 g/day) was 28.7 (4.0) mol %, the “Proportion of saturated fatty acids to total fatty acids in plasma, change from baseline (LS mean (SE))” value (4 g/day) was −1.2 (0.5) mol % and the “Proportion of saturated fatty acids to total fatty acids in plasma, end-of-treatment (mean (SD))” value (4 g/day) was 34.8 (3.5) mol %. For the same compound, the “Proportion of total omega-3 fatty acids to total fatty acids in plasma, change from baseline (LS mean (SE))” value (4 g/day) was 3.8 (0.2) mol %, the “Proportion of total omega-3 fatty acids to total fatty acids in plasma, end-of-treatment (mean (SD))” value (4 g/day) was 6.7 (1.9) mol % and the “Proportion of total omega-6 fatty acids to total fatty acids in plasma, change from baseline (LS mean (SE))” value (4 g/day) was −0.9 (0.7) mol %. The “Proportion of total omega-6 fatty acids to total fatty acids in plasma, end-of-treatment (mean (SD))” value (4 g/day) was 29.8 (6.2) mol %, the “Ratio of AA/EPA in plasma, change from baseline (LS mean (SE))” value (4 g/day) was −10.8 (0.5) and the “Ratio of AA/EPA in plasma, end-of-treatment (mean)” value (4 g/day) was 1.2. The “Ratio of n-3/n-6 FA in plasma, change from baseline (LS mean (SE))” value (4 g/day) was 0.4 (0.009), the “Ratio of n-3/n-6 FA in plasma, end-of-treatment (mean)” value (4 g/day) was 0.24 and the “Stearic plasma concentration, change from baseline (LS mean (SE))” value (4 g/day) was −101 (35.4). For the same compound, the “Stearic plasma concentration, end-of-treatment (mean)” value (4 g/day) was 500.3.
